# Literature values in patent US20030167159A1, “Method for determining molecular surface areas and volumes” (California Institute of Technology, priority 2001, published 2003).
# Where a SMILES comes first, the peptide text is derived from it.
# Tests used:
# Details in all cases: as reported in Bursulaya et al.
# [1] = biological target: T1, L-Arabinose binding protein (ara) (Escherichia coli, UniProt P02924)
# T1 sequence (P02924 24-329): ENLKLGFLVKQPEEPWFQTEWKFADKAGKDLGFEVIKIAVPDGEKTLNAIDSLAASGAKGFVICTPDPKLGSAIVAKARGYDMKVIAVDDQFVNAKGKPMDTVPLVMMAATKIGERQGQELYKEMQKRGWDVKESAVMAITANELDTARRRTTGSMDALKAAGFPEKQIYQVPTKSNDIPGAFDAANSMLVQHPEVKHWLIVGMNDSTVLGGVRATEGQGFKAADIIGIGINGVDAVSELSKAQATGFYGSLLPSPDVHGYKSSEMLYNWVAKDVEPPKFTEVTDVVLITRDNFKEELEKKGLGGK
# [2] = biological target: T2, Carboxypeptidase A (car) (Bos taurus, UniProt P00730)
# T2 sequence (P00730 111-419): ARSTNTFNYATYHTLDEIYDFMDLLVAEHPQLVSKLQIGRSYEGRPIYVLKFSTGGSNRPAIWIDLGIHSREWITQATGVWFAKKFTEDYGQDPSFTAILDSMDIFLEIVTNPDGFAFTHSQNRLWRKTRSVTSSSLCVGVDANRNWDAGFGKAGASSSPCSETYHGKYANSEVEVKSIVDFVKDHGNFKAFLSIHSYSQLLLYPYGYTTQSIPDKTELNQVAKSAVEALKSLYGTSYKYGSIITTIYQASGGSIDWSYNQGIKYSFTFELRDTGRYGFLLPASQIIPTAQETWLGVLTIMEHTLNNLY
# [3] = biological target: T3, ε-Thrombin (ret) (Bos taurus, UniProt P00735)
# T3 construct: ε-Thrombin (ret)
# [4] = biological target: T4, Trypsin (trp) (Bos taurus, UniProt P00760)
# T4 sequence (P00760 24-246): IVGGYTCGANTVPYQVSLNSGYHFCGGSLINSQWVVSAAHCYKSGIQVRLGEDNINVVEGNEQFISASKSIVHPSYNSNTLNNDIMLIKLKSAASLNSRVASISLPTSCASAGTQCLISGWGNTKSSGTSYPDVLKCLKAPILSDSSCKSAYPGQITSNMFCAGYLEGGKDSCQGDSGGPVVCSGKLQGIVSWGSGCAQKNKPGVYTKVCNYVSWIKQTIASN
# [5] = biological target: T5, Cytochrome P-450cam (cyt) (Pseudomonas putida, UniProt P00183)
# T5 sequence (P00183 1-415): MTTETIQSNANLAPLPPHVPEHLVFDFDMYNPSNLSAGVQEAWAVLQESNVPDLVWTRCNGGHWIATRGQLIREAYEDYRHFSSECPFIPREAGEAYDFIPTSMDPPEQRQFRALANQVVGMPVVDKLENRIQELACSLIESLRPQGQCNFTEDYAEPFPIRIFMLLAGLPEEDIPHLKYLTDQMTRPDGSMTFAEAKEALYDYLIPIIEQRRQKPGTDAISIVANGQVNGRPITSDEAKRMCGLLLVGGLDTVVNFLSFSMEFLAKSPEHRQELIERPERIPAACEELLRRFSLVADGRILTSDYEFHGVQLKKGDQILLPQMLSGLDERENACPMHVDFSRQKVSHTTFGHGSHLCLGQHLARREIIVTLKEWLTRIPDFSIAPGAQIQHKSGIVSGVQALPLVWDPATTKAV
# [6] = biological target: T6, Intestinal FABP (fab) (Rattus norvegicus, UniProt P02693)
# T6 sequence (P02693 1-132): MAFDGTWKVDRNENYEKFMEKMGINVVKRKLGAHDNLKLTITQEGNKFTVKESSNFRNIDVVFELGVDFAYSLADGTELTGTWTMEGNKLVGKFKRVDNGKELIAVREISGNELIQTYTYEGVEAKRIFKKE
structure (smiles),measurement,setting,value
O[C@@H]1[C@@H](O)[C@@H](O)CO[C@H]1O [1abe],"percentage of ligands in the 10037-compound database that score better than the co-crystal ligand, DOCK",[1],0.5%
same,"percentage of ligands in the 10037-compound database that score better than the co-crystal ligand, FlexX",[1],0.2%
same,"percentage of ligands in the 10037-compound database that score better than the co-crystal ligand, ICM",[1],0.01%
C[C@H]1O[C@H](O)[C@H](O)[C@@H](O)[C@H]1O [1abf],"percentage of ligands in the 10037-compound database that score better than the co-crystal ligand, DOCK",[1],1.2%
same,"percentage of ligands in the 10037-compound database that score better than the co-crystal ligand, FlexX",[1],0.2%
same,"percentage of ligands in the 10037-compound database that score better than the co-crystal ligand, ICM",[1],0.03%
O=C(O)C[C@@H](Cc1ccccc1)C(=O)O [1cbx],"percentage of ligands in the 10037-compound database that score better than the co-crystal ligand, DOCK",[2],36.8%
same,"percentage of ligands in the 10037-compound database that score better than the co-crystal ligand, FlexX",[2],2.7%
same,"percentage of ligands in the 10037-compound database that score better than the co-crystal ligand, ICM",[2],0.2%
Cc1ccc(S(=O)(=O)N[C@@H](Cc2ccc(C(=N)N)cc2)C(=O)N2CCCCC2)cc1 [1ett],"percentage of ligands in the 10037-compound database that score better than the co-crystal ligand, DOCK",[3]; Dock,0.9%
same,"percentage of ligands in the 10037-compound database that score better than the co-crystal ligand, FlexX",[3]; FlexX,9%
same,"percentage of ligands in the 10037-compound database that score better than the co-crystal ligand, ICM",[3]; ICM,0.06%
Cc1ccc(S(=O)(=O)N[C@@H](Cc2cccc(C(=N)N)c2)C(=O)N2CCCCC2)cc1 [1pph],"percentage of ligands in the 10037-compound database that score better than the co-crystal ligand, DOCK",[4],37%
same,"percentage of ligands in the 10037-compound database that score better than the co-crystal ligand, FlexX",[4],0.6%
same,"percentage of ligands in the 10037-compound database that score better than the co-crystal ligand, ICM",[4],0.3%
NCC1CCCCC1 [1tng],"percentage of ligands in the 10037-compound database that score better than the co-crystal ligand, DOCK",[4],28.7%
same,"percentage of ligands in the 10037-compound database that score better than the co-crystal ligand, FlexX",[4],30.8%
same,"percentage of ligands in the 10037-compound database that score better than the co-crystal ligand, ICM",[4],0.3%
NCCc1ccccc1 [1tnj],"percentage of ligands in the 10037-compound database that score better than the co-crystal ligand, DOCK",[4],45.1%
same,"percentage of ligands in the 10037-compound database that score better than the co-crystal ligand, FlexX",[4],47.9%
same,"percentage of ligands in the 10037-compound database that score better than the co-crystal ligand, ICM",[4],1.1%
NCCCc1ccccc1 [1tnk],"percentage of ligands in the 10037-compound database that score better than the co-crystal ligand, DOCK",[4],58.1%
same,"percentage of ligands in the 10037-compound database that score better than the co-crystal ligand, FlexX",[4],37.1%
same,"percentage of ligands in the 10037-compound database that score better than the co-crystal ligand, ICM",[4],14.6%
N[C@H]1C[C@@H]1c1ccccc1 [1tnl],"percentage of ligands in the 10037-compound database that score better than the co-crystal ligand, DOCK",[4],82.9%
same,"percentage of ligands in the 10037-compound database that score better than the co-crystal ligand, FlexX",[4],39.1%
same,"percentage of ligands in the 10037-compound database that score better than the co-crystal ligand, ICM",[4],51.6%
CC12CCC(CC1=O)C2(C)C (stereo not drawn) [2cpp],"percentage of ligands in the 10037-compound database that score better than the co-crystal ligand, DOCK",[5]; Dock,7.3%
same,"percentage of ligands in the 10037-compound database that score better than the co-crystal ligand, FlexX",[5]; FlexX,12.6%
same,"percentage of ligands in the 10037-compound database that score better than the co-crystal ligand, ICM",[5]; ICM,11.7%
CCCCCCCCCCCCCCCC(=O)O [2ifb],"percentage of ligands in the 10037-compound database that score better than the co-crystal ligand, DOCK",[6]; Dock,7.1%
same,"percentage of ligands in the 10037-compound database that score better than the co-crystal ligand, FlexX",[6]; FlexX,99.3%
same,"percentage of ligands in the 10037-compound database that score better than the co-crystal ligand, ICM",[6]; ICM,0.5%
NCC(=O)N[C@@H](Cc1ccc(O)cc1)C(=O)O [3cpa] (H-Gly-Tyr-OH),"percentage of ligands in the 10037-compound database that score better than the co-crystal ligand, DOCK",[2],14.2%
same,"percentage of ligands in the 10037-compound database that score better than the co-crystal ligand, FlexX",[2],1.4%
same,"percentage of ligands in the 10037-compound database that score better than the co-crystal ligand, ICM",[2],0.3%
N=C(N)c1ccccc1 [3ptb],"percentage of ligands in the 10037-compound database that score better than the co-crystal ligand, DOCK",[4],20.3%
same,"percentage of ligands in the 10037-compound database that score better than the co-crystal ligand, FlexX",[4],14%
same,"percentage of ligands in the 10037-compound database that score better than the co-crystal ligand, ICM",[4],0.1%
OC[C@H]1OC(O)[C@H](O)[C@@H](O)[C@H]1O (stereo partly drawn) [5abp],"percentage of ligands in the 10037-compound database that score better than the co-crystal ligand, DOCK",[1],0.2%
same,"percentage of ligands in the 10037-compound database that score better than the co-crystal ligand, FlexX",[1],0.4%
same,"percentage of ligands in the 10037-compound database that score better than the co-crystal ligand, ICM",[1],0.02%
